Reference: patent US11814366B2, “Antiviral compounds and use thereof” (UNIVERSITA DEGLI STUDI DI SIENA, priority 2018, dated 2023)

Test system: HIV Strain NL4-3
Assay: HIV-1 inhibition assay, strain NL4-3, TZM-bl cells, CPRG readout
Format: cell-based
Conditions: Human immunodeficiency virus 1, NL43, virus pretreated 1 h at 37° C. with compound
Procedure: The human TZM-bl indicator cell line (obtained from the NIH AIDS reagents program, cat. Nr 8129, www.aidsreagent.org) was maintained at 37° C. and 5% CO2 in Dulbecco's modified Eagle's medium (DMEM) medium containing 10% fetal bovine serum, 50 μg/ml penicillin, and 50 μg/ml streptomycin. The HIV-1 laboratory strains NL (AD8) (NIH AIDS reagents program, cat. Nr, 11346) and NL4.3 (NIH AIDS reagents program, cat. Nr. 114) were titrated as previously reported by Tiberi et al (2014). Briefly, serial 5-fold dilutions of each virus were made in quadruplicate wells in 96-well culture plates, in a total volume of 100 μl of growth medium (DMEM), for a total of 8 dilution steps. Freshly trypsinized cells (20,000 cells in 100 μl of growth medium containing 75 μg/mL DEAE-dextran) were added to each well, and the plates were incubated at 37° C. in a humidified 5% CO2-95% air environment. After 48 h of incubation, the medium was removed and viral infection was quantified using a β-galactosidase (CPRG) assay (Roche). Twenty thousand TZM-bl cells/well were seeded in 96-well plates in complete DMEM supplemented with 30 μg/ml DEAE-dextran (Sigma-Aldrich). Three hundred times the 50% tissue culture infective dose (TCID50)/ml of each strain was pretreated for 1 h at 37° C. with six serial dilutions (10000 nM, 2000 nM, 400 nM, 80 nM, 16 nM, 3.2 nM) and then added to the cells. Vehicle (0.1% dimethyl sulfoxide [DMSO])-treated cells served as a negative control. […] After 2 days, viral infection was quantified using a CPRG assay (Roche cat nr 11379119103). The inhibitory curves were fitted by nonlinear regression, allowing for the calculation of the 50% effective concentration (EC50) using the Prism software. To evaluate the cell toxicity of the compounds, the metabolic XTT [2,3-bis-(2-methoxy-4-nitro-5-sulfophenyl)-2H-tetrazolium-5-carboxanilide] test (Sigma-Aldrich) was performed according to the manufacturer's instructions.

## O=C1NC(=S)N(CCc2ccccc2)C(=O)/C1=C\c1ccc(-c2ccc(C(=O)O)c(O)c2)[nH]1 [Compound 15b, (Z)-4-(5-((4,6-dioxo-1-phenethyl-2-thioxotetrahydropyrimidin-5(2H)-ylidene)methyl)-1H-pyrrol-2-yl)-2-hydroxybenzoic Acid]
  EC50: 64 nM
